15 molecules from ChEMBL document CHEMBL5236650, “Nonhydrolyzable d‑phenylalanine-benzoxazole derivatives retain antitubercular activity” (Bioorg Med Chem Lett, 2023) can be followed below.

≈ marks a conversion by molar mass, not a printed value.

For series [1], the system named is Mycobacterium tuberculosis. The experiment in a line: Antitubercular activity against Mycobacterium tuberculosis H37Rv ATCC 27294 cultured in GAST/Fe media assessed as inhibition of bacterial growth incubated for 7 days. In kind it is functional. The note with it: H37Rv ATCC 27294, 168 h, time 7 day.
A short description of series [2]: Protein binding in mouse plasma assessed as free fraction. Format: ADME, cell-free.
Series [3] can be described thus: Stability in mouse plasma assessed as half life. Format: ADME, cell-free.
Series [4] has as its system Mycobacterium tuberculosis. In words: Antitubercular activity against Mycobacterium tuberculosis H37Rv ATCC 27294 cultured in 7H9/ADC/Tw media assessed as inhibition of bacterial growth incubated for 7 days. In kind it is functional. The note with it: H37Rv ATCC 27294, 168 h, time 7 day.
In series [5] the test system is Mycobacterium tuberculosis. In words: Antitubercular activity against Mycobacterium tuberculosis H37Rv ATCC 27294 cultured in 7H9/DPPC/casitone/Tx media assessed as inhibition of bacterial growth incubated for 7 days. Format: functional. To be noted: H37Rv ATCC 27294, 168 h, time 7 day.
The nature of series [6]: Drug metabolism in mouse plasma assessed as 2-(4-methoxyphenyl)benzo[d]oxazol-5-amine formation. In kind it is ADME, cell-free.

The term MIC denotes the smallest concentration in the dilution series that meets the test's criterion for growth inhibition. For orientation: half-life means how long it takes for the measured level to halve. On to `COc1ccc(-c2nc3cc(-n4cc([C@H](N)Cc5ccccc5)nn4)ccc3o2)cc1`, for which the minimum inhibitory concentration (MIC) in series [1] and in series [4] was 6.25 µM (≈ 2.57 µg/mL) throughout. Also, the Fu in series [2] turned out to be 0.65%. In series [3], the half-life is over 4 h.
On to `COc1ccc(-c2nc3cc(NC(=S)[C@H](N)Cc4ccccc4)ccc3o2)cc1`, for which the figures for the minimum inhibitory concentration (MIC) in series [1] and in series [4] were 19 µM (≈ 7.67 µg/mL) and 37 µM (≈ 14.9 µg/mL), respectively.
For `N[C@H](Cc1ccccc1)C(=O)Nc1ccc2oc(-c3ccc(O)cc3)nc2c1` the same measures were 2.3 µM (≈ 0.859 µg/mL) and 1.2 µM (≈ 0.448 µg/mL).
As for `COc1ccc(-c2nc3cc(C(=O)NC[C@H](N)Cc4ccccc4)ccc3o2)cc1`, the MIC in series [5] and in series [4] was 6.25 µM (≈ 2.51 µg/mL) in each case. In series [2], the Fu worked out at 1.2%. Also, the half-life in series [3] was over 4 h.
As to `N[C@H](Cc1ccccc1)C(=O)Nc1ccc2oc(-c3ccc(OC(F)(F)F)cc3)nc2c1`, the MIC in series [1] and in series [4] was 3.13 µM (≈ 1.38 µg/mL) each time.
As to `COc1ccc(-c2nc3cc(NC[C@H](N)Cc4ccccc4)ccc3o2)cc1`, the MIC in series [1] was found to be 9.4 µM (≈ 3.51 µg/mL); in series [4], 12.5 µM (≈ 4.67 µg/mL). For the same molecule, the Fu in series [2] was under 0.1%. Further, the half-life in series [3] was over 4 h.
Turning to `N[C@H](CCc1ccccc1)C(=O)Nc1ccc2oc(-c3ccc(O)cc3)nc2c1`, the MIC in series [1] and in series [4] was 3.13 µM (≈ 1.21 µg/mL) throughout.
For `N[C@H](Cc1ccccc1)C(=O)Nc1ccc2ocnc2c1`, the MIC in series [1] is 25 µM (≈ 7.03 µg/mL); in series [4] it was over 50 µM.
Turning to `COc1ccc(-c2nc3cc(NC(=O)[C@H](N)[C@@H](O)c4ccccc4)ccc3o2)cc1`, the MIC was 25 µM (≈ 10.1 µg/mL) in series [1] and over 50 µM in series [4].
The matching figures for `COc1ccc(Cc2nc3cc(NC(=O)[C@H](N)Cc4ccccc4)ccc3o2)cc1`: 3.13 µM (≈ 1.26 µg/mL) and 3.13 µM (≈ 1.26 µg/mL).
The matching figures for `CCOC(=O)COc1ccc(-c2nc3cc(NC(=O)[C@H](N)Cc4ccccc4)ccc3o2)cc1`: 2.3 µM (≈ 1.06 µg/mL) and 3.13 µM (≈ 1.44 µg/mL).
As for `COc1ccc(-c2nc3cc(N)ccc3o2)cc1`, in series [4], the MIC was at least 12.5 µM.
Broadly, the fraction unbound is free concentration divided by total concentration. Turning to `C#CCOc1ccc(-c2nc3cc(NC(=O)[C@H](N)Cc4ccccc4)ccc3o2)cc1`, the free fraction (fraction unbound) in series [2] is under 0.004. In addition, the half-life in series [3] is 5 h. In addition, the MIC in series [4] came out at 1.2 µM (≈ 0.494 µg/mL).
Take `N[C@@H](CC(=O)Nc1ccc2oc(-c3ccc(O)cc3)nc2c1)Cc1ccccc1`: the MIC in series [1] and in series [4] was 19 µM (≈ 7.36 µg/mL) each time.
As to `COc1ccc(-c2nc3cc(NC(=O)[C@H](N)Cc4ccccc4)ccc3o2)cc1`, the MIC in series [1] and in series [4] was 1.56 µM (≈ 0.604 µg/mL) each time. In addition, the Drug metabolism result in series [6] is reported as “Metabolite_Detected”. Also, in series [3], the half-life came out at 0.417 h.
